The values below come from patent US5658886A, “Acridinone derivative, compositions containing same and a method for using same to treat Chlamydia trachomatis” (Limited Liability Partnership "POLYSAN", priority 1993, dated 1997).

For data set [1], the system named is interferon. Put plainly: Interferon-inducing activity in mice (titers in blood). It counts as in vivo, BALB mice. The note with it: for Interferon titer: dose (mg/kg): cycloferone 200, thylorone 50, prototype 400-600. On the procedure: At predetermined time intervals interferon titers were measured in the blood by conventional techniques on homologous cells […] grown in 96-well plates in a CO2 -containing incubator. The test-virus was the encephalomyocarditis virus.

Data set [2] deals with ristal-strain mongrel white mice. Briefly: in vivo. Here is the method:
(§1) Intravenous and intramuscular injections were given of 2000 mg/kg and less in two stages. The follow-up period was 14 days. The lethal dose (LD50) was calculated by the Kerber technique. […] 31, 1987.

A short description of data set [3]: in vivo. Particulars: mouse, in vivo. On the procedure: as §1
The subject of data set [4] is human immunodeficiency virus (HIV). Particulars: 0.08 mg/ml.
Description: The cells were grown at the Russian Medical University (RMU) in tube medium--1640 containing 20% calf foetal serum at end concentration of 0.5-0.7×10^6 cells/ml. […] The cells were then incubated for 3-4 days at 37° C. with subsequent replacement of nutrient medium. On the fifth and seventh day after infection, the presence of virus-specific antigen was established through indirect immunofluorescence assay using anti-HIV antibodies.
Data set [5] has as its system C trachomatis. Particulars: 100 mg/kg daily for 5 days.
Description: Experiments were performed involving C trachomatis infection of non-line whim mice weighing 16-18 grams. […] Alternatively, a single tetracycline hydrochloride injection (100 mg/kg) was administered on conventional schedule for 5 days.
Therapeutic effectiveness was evaluated by cytoscopic examination of stained smears from lymph nodes and the lung for pathogenic multiplication.
For data set [6], the system named is Peripheral-blood lymphocytes. Put plainly: Interferon induction in cell culture, peripheral-blood lymphocytes. Type of data set: cell-based, BALB mice. The source says:
(§2) The initial concentration was 5×10^6 cells/milliliter. The dynamics of interferon accumulation were studied in the cultural fluid of the lymphocytes grown on plastic plates in the presence of CO2.

In data set [7] the test system is hepatocytes (liver). Put plainly: Anti-promotive activity: hepatocytic cohesion. Type of data set: in vivo, BALB/c mice. Here is the method: Studies were performed on female BALB/c mice weighing 25.0 grams.
The compounds were administered daily for 6 days in optimal doses. Controls were given physiological solution. Six hours after the last injection the animals were sacrificed. Sections of the lung and liver were cut out, submerged in 199 medium, and cellular cohesion was measured. Measurements were performed with a micro-manipulator by modified Kuman technique. See Modianova E. A., Voprosy onkologii, 19(6): 83-88 (1973).
For each experimental point, cellular cohesion was measured in 4-5 mice. One tissue segment from each of the mice measuring 10-30 cells was examined.

The subject of data set [8] is T-lymphocytes. Put plainly: Interferon induction in cell culture, T-lymphocytes. It counts as cell-based, BALB mice.
Description: as §2

Data set [9] relates to B-lymphocytes. Put plainly: Interferon induction in cell culture, B-lymphocytes. Type of data set: cell-based, BALB mice.
Description: as §2

For data set [10], the system named is Splenocytes. Briefly: Interferon induction in cell culture, splenocytes. Type of data set: cell-based, BALB mice.
Description: as §2

Where a name gives a salt, the structure may show the parent alone. Read-outs that look alike come from different tables or passages of the source.

The LD50 is the dose at which mortality reaches 50%. Read a low LD50 as greater toxicity. In the case of `CN(C)CCOC(=O)Cn1c2ccccc2c(=O)c2ccccc21` [10-carboxymethyl-9-acridone dimethyl-aminoethylether chlorhydrate], the Interferon titer in data set [1] (2 hours) worked out at 100 IU/ml; in data set [1] (4 hours), 1000 IU/ml. Also, the “interferonogenic activity compared to the compound of the present invention” value in data set [1] (words, vs cycloferone) is “lower interferonogenic activity”. The “toxicity upon parenteral application” value in [2] (parenteral) is “low-toxicity”. The “level of toxicity compared to the compound of the present invention” value in [2] (words, vs cycloferone) is listed as “same level of toxicity”. The LD50 at 336 h in [3] (im) is 600 mg/kg; in data set [3] (iv) it was 400 mg/kg.
For `Cc1cn([C@H]2C[C@H](N=[N+]=[N-])[C@@H](CO)O2)c(=O)[nH]c1=O` [Azidothymidine, azidothymidine], the “Number of cells containing HIV antigen by IIFR” value in data set [4] (Day 5) is given as 6.5%; in [4] (Day 7), 4.7%.
Take `CN(C)C1C(=O)C(C(N)=O)=C(O)C2(O)C(=O)C3=C(O)c4c(O)cccc4C(C)(O)C3CC12` (stereo not shown) [Tetracycline hydrochloride, tetracycline hydrochloride]: the “Effectiveness Index” value in data set [5] (lung, 3 days) was 1.8; in [5] (lung, 7 days) it was 1.0; in [5] (lymph nodes, 3 days), 0.9; in data set [5] (lymph nodes, 7 days), 0.6.
For `CCN(CC)CCOc1ccc2c(c1)C(=O)c1cc(OCCN(CC)CC)ccc1-2` [Thylorone], the Interferon titer in data set [1] (1 hour) is less than 40 IU/ml; in data set [1] (2 hours) it was less than 40 IU/ml; in data set [1] (4 hours) it was less than 40 IU/ml; in data set [1] (8 hours) it was 40 IU/ml; in data set [1] (18 hours), 640 IU/ml; in data set [1] (24 hours), 20 IU/ml. The Interferon titer is on record as less than 10 IU/ml in data set [1] (48 hours); 40 in [6] (24 hr); 80 in data set [6] (48 hr); 320 in [6] (72 hr); 80 in data set [6] (96 hr); 10 in data set [6] (120 hr). In addition, the Interferon titer in data set [6] (144 hr) is less than 10; in data set [8] (24 hr) it was 15; in data set [8] (48 hr), 60; in data set [8] (72 hr), 5000; in data set [8] (96 hr), 3600; in [8] (120 hr), 960. Moreover, the Interferon titer in data set [8] (144 hr) is listed as 5; in [9] (24 hr) it was 15; in data set [9] (48 hr), 30; in data set [9] (72 hr), 320; in [9] (96 hr), less than 10; in data set [9] (120 hr), less than 10. For the same compound, the Interferon titer was 5 in [9] (144 hr); 15 in data set [10] (24 hr); 30 in data set [10] (48 hr); 640 in [10] (72 hr); 320 in data set [10] (96 hr); 15 in data set [10] (120 hr). Moreover, the Interferon titer in data set [10] (144 hr) is listed as less than 5. Further, in data set [7] (Intraperitoneal, 10.0 mg/kg, P >0.05), the “Hepatocytic Cohesion” value is recorded as 0.053 ± 0.008 mg/1 cell. The “hepatocytic cohesion indices compared to controls” value in data set [7] (words, vs controls) was “the same as in the controls”.
